Test results from US12077503B2, “Substituted cyclic amides and their use as herbicides” (FMC CORPORATION, priority 2015, dated 2024).

Key:
Type in all cases: in vivo
[1] = tested on: barnyardgrass (Echinochloa crus-galli); assay: Test A preemergence; settings: Echinochloa crus-galli, pre-emergence, 240 h, Preemergence
In short: (§1)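 Treatment is preemergence as a directed soil spray after planting, or postemergence at the one- to two-leaf stage, with test chemical in a non-phytotoxic solvent mixture plus surfactant. Plants stay in the greenhouse about 10 d before visual injury scoring on a 0 to 100 scale versus untreated controls.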

[2] = tested on: Kochia (Kochia scoparia); assay: Test A preemergence; settings: Bassia scoparia, pre-emergence, 240 h, 0 to 100 scale where 0 is no effect and 100 is complete control, read-out: Kochia plant response rating
In short: as §1

[3] = tested on: giant foxtail (Setaria faberii); assay: Test A preemergence; settings: Setaria faberi, pre-emergence, 240 h, Preemergence
In short: as §1

[4] = tested on: ragweed (common ragweed, Ambrosia elatior); assay: Test A preemergence; settings: Ambrosia artemisiifolia, pre-emergence, 240 h, 0 to 100 scale where 0 is no effect and 100 is complete control, read-out: Ragweed plant response rating
In short: as §1

[5] = tested on: ryegrass, Italian (Italian ryegrass, Lolium multiflorum); assay: Test A preemergence; settings: Lolium multiflorum, pre-emergence, 240 h, 0 to 100 scale where 0 is no effect and 100 is complete control, read-out: Ryegrass, Italian plant response rating
In short: as §1

[6] = tested on: pigweed (Amaranthus retroflexus); assay: Test A preemergence; settings: Amaranthus retroflexus, pre-emergence, 240 h, 0 to 100 scale where 0 is no effect and 100 is complete control, read-out: Pigweed plant response rating
[7] = tested on: wheat (Triticum aestivum); assay: Test A postemergence; settings: Triticum aestivum, post-emergence, 240 h
In short: as §1

[8] = tested on: Galium (catchweed bedstraw, Galium aparine); assay: Test A postemergence; settings: Galium, post-emergence, 240 h
In short: as §1

[9] = tested on: barnyardgrass (Echinochloa crus-galli); assay: Test A postemergence; settings: Echinochloa crus-galli, post-emergence, 240 h
In short: as §1

[10] = tested on: Kochia (Kochia scoparia); assay: Test A postemergence; settings: Bassia scoparia, post-emergence, 240 h
In short: as §1

[11] = tested on: giant foxtail (Setaria faberii); assay: Test A postemergence; settings: Setaria faberi, post-emergence, 240 h
In short: as §1

[12] = tested on: blackgrass (Alopecurus myosuroides); assay: Test A postemergence; settings: Alopecurus myosuroides, post-emergence, 240 h
In short: as §1

[13] = tested on: ragweed (common ragweed, Ambrosia elatior); assay: Test A postemergence; settings: Ambrosia artemisiifolia, post-emergence, 240 h
In short: as §1

[14] = tested on: ryegrass, Italian (Italian ryegrass, Lolium multiflorum); assay: Test A postemergence; settings: Lolium multiflorum, post-emergence, 240 h
In short: as §1

[15] = tested on: corn (Zea mays); assay: Test A postemergence; settings: Zea mays, post-emergence, 240 h
In short: as §1

[16] = tested on: pigweed (Amaranthus retroflexus); assay: Test A postemergence; settings: Amaranthus retroflexus, post-emergence, 240 h
In short: as §1

[17] = tested on: rice (Oryra sativa); assay: Test B flooded paddy test; settings: Oryza sativa, 250 g ai/ha, Flood; 0 to 100 scale where 0 is no effect and 100 is complete control; read-out: Rice plant response rating
In short: (§2)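 Visual ratings (0 none to 100 complete control) are relative to untreated plants, taken 13–15 d after treatment in a greenhouse. Test material went straight into floodwater standing 3 cm above the soil, kept constant, on plants at the 2-leaf stage.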

[18] = tested on: barnyardgrass (Echinochloa crus-galli); assay: Test B flooded paddy test; settings: Echinochloa crus-galli, 250 g ai/ha, Flood; 0 to 100 scale where 0 is no effect and 100 is complete control; read-out: Barnyardgrass plant response rating
In short: as §2

[19] = tested on: sedge, umbrella (small-flower umbrella sedge, Cyperus difformis); assay: Test B flooded paddy test; settings: Cyperus difformis, 250 g ai/ha, Flood; 0 to 100 scale where 0 is no effect and 100 is complete control; read-out: Sedge, Umbrella plant response rating
In short: as §2

[20] = tested on: ducksalad (Heteranthera limosa); assay: Test B flooded paddy test; settings: Heteranthera limosa, 250 g ai/ha, Flood; 0 to 100 scale where 0 is no effect and 100 is complete control; read-out: Ducksalad plant response rating
In short: as §2

[21] = 125 g ai/ha, preemergence, approx. 10 d

Question: Which results are given for `Cc1ccncc1NC(=O)[C@H]1C(=O)N(C)C[C@@H]1c1ccc(C(F)(F)F)cc1` [Compound 1068]?
Answer: pest or weed control at 31 g/ha ([1]; 31 g ai/ha, 0 to 100 scale where 0 is no effect and 100 is complete control, read-out: Barnyardgrass plant response rating): 0%; pest or weed control at 125 g/ha ([1]; 125 g ai/ha, visual injury rating after approximately 10 d, read-out: Barnyardgrass plant response rating (0 to 100 scale, 0 is no effect, 100 is complete control)): 0%; pest or weed control at 31 g/ha ([2]; 31 g ai/ha, Preemergence): 0%; pest or weed control at 125 g/ha [2, 21]: 0%; pest or weed control at 31 g/ha ([3]; 31 g ai/ha, 0 to 100 scale where 0 is no effect and 100 is complete control, read-out: Foxtail, Giant plant response rating): 0%; pest or weed control at 125 g/ha ([3]; 125 g ai/ha, visual injury rating after approximately 10 d, read-out: Foxtail, Giant plant response rating (0 to 100 scale, 0 is no effect, 100 is complete control)): 0%; pest or weed control at 31 g/ha ([4]; 31 g ai/ha, Preemergence): 0%; pest or weed control at 125 g/ha [4, 21]: 0%; pest or weed control at 31 g/ha ([5]; 31 g ai/ha, Preemergence): 0%; pest or weed control at 125 g/ha [5, 21]: 0%; pest or weed control at 31 g/ha ([6]; 31 g ai/ha, Preemergence): 0%; pest or weed control at 125 g/ha [6, 21]: 0%; plant injury at 125 g/ha ([7]; 125 g ai/ha, postemergence, visual injury on 0 to 100 scale (0 no effect, 100 complete control), approx. 10 d, read-out: Wheat plant response rating): 0%; plant injury at 31 g/ha ([7]; Postemergence, 31 g ai/ha, visual injury after approx. 10 d, 0 to 100 scale, 0 no effect, 100 complete control, read-out: Plant response rating, Wheat): 0%; pest or weed control at 125 g/ha ([8]; 125 g ai/ha, postemergence, visual injury on 0 to 100 scale (0 no effect, 100 complete control), approx. 10 d, read-out: Galium plant response rating): 0%; pest or weed control at 31 g/ha ([8]; Postemergence, 31 g ai/ha, visual injury after approx. 10 d, 0 to 100 scale, 0 no effect, 100 complete control, read-out: Plant response rating, Galium): 0%; pest or weed control at 125 g/ha ([9]; 125 g ai/ha, postemergence, visual injury on 0 to 100 scale (0 no effect, 100 complete control), approx. 10 d, read-out: Barnyardgrass plant response rating): 0%; pest or weed control at 31 g/ha ([9]; Postemergence, 31 g ai/ha, visual injury after approx. 10 d, 0 to 100 scale, 0 no effect, 100 complete control, read-out: Plant response rating, Barnyardgrass): 0%; pest or weed control at 125 g/ha ([10]; 125 g ai/ha, postemergence, visual injury on 0 to 100 scale (0 no effect, 100 complete control), approx. 10 d, read-out: Kochia plant response rating): 0%; pest or weed control at 31 g/ha ([10]; Postemergence, 31 g ai/ha, visual injury after approx. 10 d, 0 to 100 scale, 0 no effect, 100 complete control, read-out: Plant response rating, Kochia): 0%; pest or weed control at 125 g/ha ([11]; 125 g ai/ha, postemergence, visual injury on 0 to 100 scale (0 no effect, 100 complete control), approx. 10 d, read-out: Foxtail, Giant plant response rating): 0%; pest or weed control at 31 g/ha ([11]; Postemergence, 31 g ai/ha, visual injury after approx. 10 d, 0 to 100 scale, 0 no effect, 100 complete control, read-out: Plant response rating, Foxtail, Giant): 0%; pest or weed control at 125 g/ha ([12]; 125 g ai/ha, postemergence, visual injury on 0 to 100 scale (0 no effect, 100 complete control), approx. 10 d, read-out: Blackgrass plant response rating): 0%; pest or weed control at 31 g/ha ([12]; Postemergence, 31 g ai/ha, visual injury after approx. 10 d, 0 to 100 scale, 0 no effect, 100 complete control, read-out: Plant response rating, Blackgrass): 0%; pest or weed control at 125 g/ha ([13]; 125 g ai/ha, postemergence, visual injury on 0 to 100 scale (0 no effect, 100 complete control), approx. 10 d, read-out: Ragweed plant response rating): 0%; pest or weed control at 31 g/ha ([13]; Postemergence, 31 g ai/ha, visual injury after approx. 10 d, 0 to 100 scale, 0 no effect, 100 complete control, read-out: Plant response rating, Ragweed): 0%; pest or weed control at 125 g/ha ([14]; 125 g ai/ha, postemergence, visual injury on 0 to 100 scale (0 no effect, 100 complete control), approx. 10 d, read-out: Ryegrass, Italian plant response rating): 0%; pest or weed control at 31 g/ha ([14]; Postemergence, 31 g ai/ha, visual injury after approx. 10 d, 0 to 100 scale, 0 no effect, 100 complete control, read-out: Plant response rating, Ryegrass, Italian): 0%; plant injury at 125 g/ha ([15]; 125 g ai/ha, postemergence, visual injury on 0 to 100 scale (0 no effect, 100 complete control), approx. 10 d, read-out: Corn plant response rating): 0%; Corn plant response rating (crop injury, 0 = no effect, 100 = complete kill) at 31 g/ha ([15]; Postemergence, 31 g ai/ha, visual injury after approx. 10 d, 0 to 100 scale, 0 no effect, 100 complete control): 0%; pest or weed control at 125 g/ha ([16]; 125 g ai/ha, postemergence, visual injury on 0 to 100 scale (0 no effect, 100 complete control), approx. 10 d, read-out: Pigweed plant response rating): 0%; pest or weed control at 31 g/ha ([16]; Postemergence, 31 g ai/ha, visual injury after approx. 10 d, 0 to 100 scale, 0 no effect, 100 complete control, read-out: Plant response rating, Pigweed): 0%; pest or weed control at 250 g/ha [17]: 0%; pest or weed control at 250 g/ha [18]: 0%; pest or weed control at 250 g/ha [19]: 0%; pest or weed control at 250 g/ha [20]: 90%
